Values of other authors in patent publication US20240315993A1, “ANTIPARASITIC COMPOUNDS” (Intervet Inc., priority 2021, published 2024).

Columns and labels:
[1] = test system: Beet Armyworm (Spodoptera exigua); conditions: Beet Armyworm second instar larvae, 128-well diet tray, 50 μg/cm^2, five to seven days, average of eight wells; cited from earlier work
[2] = test system: Yellow Fever Mosquito (Aedes aegypti); conditions: Aedes aegypti larvae about 1 day old, 96-well plate, scored after 3 days; cited from earlier work
[3] = test system: Cabbage Looper (Trichoplusia ni); conditions: Cabbage Looper second instar larvae, 128-well diet tray, 50 μg/cm^2, five to seven days, average of eight wells; cited from earlier work

SMILES	Test A: Bioassay on BAW, percent mortality rating [1]	Test C: Bioassay on Yellow Fever Mosquito, mortality rating [2]	Test B: Bioassay on CL, percent mortality rating [3]
Cc1c(NC(=O)c2cc(NC(=O)C3C(c4cc(Cl)cc(Cl)c4)C3(Cl)Cl)ccc2Cl)ccc2[nH]ccc12 (stereo not drawn) [c69]	A (50-100)	A (80-100)	A (50-100)
CC(C)(C)c1cc2cc(NC(=O)c3cc(NC(=O)C4C(c5cc(Cl)cc(Cl)c5)C4(Cl)Cl)ccc3Cl)ccc2[nH]1 (stereo not drawn) [c70]	A (50-100)	A (80-100)	A (50-100)
COC(=O)C(O)(c1ccc(NC(=O)c2cc(NC(=O)C3C(c4cc(Cl)cc(Cl)c4)C3(Cl)Cl)ccc2Cl)c(C)c1)C(F)(F)F (stereo not drawn) [c71]	A (50-100)	A (80-100)	A (50-100)
C=C(c1ccc(NC(=O)c2cc(NC(=O)C3C(c4cc(Cl)cc(Cl)c4)C3(Cl)Cl)ccc2Cl)c(C)c1)C(F)(F)F (stereo not drawn) [c72]	A (50-100)	B (More than 0 - Less than 80)	A (50-100)
CCn1ccc2cc(NC(=O)c3cc(NC(=O)C4C(c5cc(Cl)cc(Cl)c5)C4(Cl)Cl)ccc3Cl)ccc21 (stereo not drawn) [c73]	A (50-100)	A (80-100)	A (50-100)
Cc1cc(NC(=O)OC(C)(C)C)ccc1NC(=O)c1cccc(NC(=O)C2C(c3cc(Cl)c(Cl)c(Cl)c3)C2(Cl)Cl)c1 (stereo not drawn) [c74]	A (50-100)	B (More than 0 - Less than 80)	A (50-100)
Cc1cc(NC(=O)OC(C)(C)C)ccc1NC(=O)c1cccc(NC(=O)C2C(c3cc(Cl)cc(Cl)c3)C2(Cl)Cl)c1 (stereo not drawn) [c75]	A (50-100)	B (More than 0 - Less than 80)	A (50-100)
Cc1cc(N)ccc1NC(=O)c1cccc(NC(=O)C2C(c3cc(Cl)c(Cl)c(Cl)c3)C2(Cl)Cl)c1 (stereo not drawn) [c76]	A (50-100)	A (80-100)	A (50-100)
Cc1cc(N)ccc1NC(=O)c1cccc(NC(=O)C2C(c3ccc(Cl)c(Cl)c3)C2(Cl)Cl)c1 (stereo not drawn) [c77]	A (50-100)	A (80-100)	A (50-100)
Cc1cc(N)ccc1NC(=O)c1cccc(NC(=O)C2C(c3cc(Cl)cc(Cl)c3)C2(Cl)Cl)c1 (stereo not drawn) [c78]	A (50-100)	A (80-100)	A (50-100)
O=C(Nc1ccccc1)c1cc(NC(=O)C2C(c3cc(Cl)cc(Cl)c3)C2(Cl)Cl)cc(Cl)c1Cl (stereo not drawn) [c79]	A (50-100)	A (80-100)	A (50-100)
CNc1ccc(NC(=O)c2cc(NC(=O)C3C(c4cc(Cl)cc(Cl)c4)C3(Cl)Cl)cc(Cl)c2Cl)cc1 (stereo not drawn) [c80]	A (50-100)	A (80-100)	A (50-100)
Cc1cc(NC(=O)OC(C)(C)C)ccc1NC(=O)c1cc(NC(=O)C2C(c3cc(Cl)cc(Cl)c3)C2(Cl)Cl)ccc1Cl (stereo not drawn) [c81]	A (50-100)	A (80-100)	A (50-100)
Cc1cc(N)ccc1NC(=O)c1cc(NC(=O)C2C(c3cc(Cl)c(Cl)c(Cl)c3)C2(Cl)Cl)ccc1Cl (stereo not drawn) [c84]	A (50-100)	A (80-100)	A (50-100)
N#Cc1ccc(NC(=O)c2cc(NC(=O)C3C(c4cc(Cl)cc(Cl)c4)C3(Cl)Cl)ccc2Cl)c(C#N)c1 (stereo not drawn) [c85]	A (50-100)	A (80-100)	A (50-100)
CN1C(=O)CCc2cc(NC(=O)c3cc(NC(=O)C4C(c5cc(Cl)cc(Cl)c5)C4(Cl)Cl)ccc3Cl)ccc21 (stereo not drawn) [c86]	A (50-100)	A (80-100)	A (50-100)
CN1CCCc2cc(NC(=O)c3cc(NC(=O)C4C(c5cc(Cl)cc(Cl)c5)C4(Cl)Cl)ccc3Cl)ccc21 (stereo not drawn) [c87]	A (50-100)	A (80-100)	A (50-100)
O=C(Nc1ccc2c(c1)CCCN2)c1cc(NC(=O)C2C(c3cc(Cl)cc(Cl)c3)C2(Cl)Cl)ccc1Cl (stereo not drawn) [c88]	A (50-100)	A (80-100)	A (50-100)

SMILES	Test A: Bioassay on BAW, percent mortality rating [1]	Test C: Bioassay on Yellow Fever Mosquito, mortality rating [2]	Test B: Bioassay on CL, percent mortality rating [3]
Cc1cc(N)ccc1NC(=O)c1cc(NC(=O)C2C(c3ccc(F)c(Cl)c3)C2(Cl)Cl)ccc1Cl (stereo not drawn) [c89]	A (50-100)	A (80-100)	A (50-100)
CC(=O)Nc1cccc(NC(=O)c2cc(NC(=O)C3C(c4cc(Cl)cc(Cl)c4)C3(Cl)Cl)ccc2Cl)n1 (stereo not drawn) [c90]	A (50-100)	A (80-100)	A (50-100)
N#Cc1ccc(NC(=O)c2cc(NC(=O)C3C(c4cc(Cl)cc(Cl)c4)C3(Cl)Cl)ccc2Cl)nc1N (stereo not drawn) [c91]	A (50-100)	D (No activity noticed in this bioassay)	A (50-100)
CS(=NC#N)c1ccc(NC(=O)c2cc(NC(=O)C3C(c4cc(Cl)cc(Cl)c4)C3(Cl)Cl)ccc2Cl)cc1 (stereo not drawn) [c92]	A (50-100)	A (80-100)	A (50-100)
O=C(Nc1ccc2c(ccn2CCF)c1)c1cc(NC(=O)C2C(c3cc(Cl)cc(Cl)c3)C2(Cl)Cl)ccc1Cl (stereo not drawn) [c93]	A (50-100)	A (80-100)	A (50-100)
O=C(Nc1ccc2[nH]c(-c3ccccc3)cc2c1)c1cc(NC(=O)C2C(c3cc(Cl)cc(Cl)c3)C2(Cl)Cl)ccc1Cl (stereo not drawn) [c94]	A (50-100)	A (80-100)	A (50-100)
Cc1cccc(NC(=O)c2cc(NC(=O)C3C(c4cc(Cl)cc(Cl)c4)C3(Cl)Cl)ccc2Cl)c1C#N (stereo not drawn) [c95]	A (50-100)	A (80-100)	A (50-100)
CN1Cc2ccc(NC(=O)c3cc(NC(=O)C4C(c5cc(Cl)cc(Cl)c5)C4(Cl)Cl)ccc3Cl)cc2C1 (stereo not drawn) [c96]	A (50-100)	A (80-100)	A (50-100)
CC(C)(C)OC(=O)Nc1cccc(NC(=O)c2cc(NC(=O)C3C(c4cc(Cl)cc(Cl)c4)C3(Cl)Cl)ccc2Cl)n1 (stereo not drawn) [c97]	A (50-100)	D (No activity noticed in this bioassay)	A (50-100)
CC(C)(C)OC(=O)Nc1cccc(NC(=O)c2cc(NC(=O)C3C(c4ccc(F)c(Cl)c4)C3(Cl)Cl)ccc2Cl)n1 (stereo not drawn) [c98]	A (50-100)	A (80-100)	A (50-100)
O=C(Nc1ccc2c(c1)CCN2)c1cc(NC(=O)C2C(c3cc(Cl)cc(Cl)c3)C2(Cl)Cl)ccc1Cl (stereo not drawn) [c99]	A (50-100)	A (80-100)	A (50-100)
CNc1ccc(NC(=O)c2cc(NC(=O)C3C(c4ccc(Br)c(Cl)c4)C3(Cl)Cl)ccc2Cl)c(C)c1 (stereo not drawn) [c100]	A (50-100)	A (80-100)	A (50-100)
Cc1cc(N)ccc1NC(=O)c1cc(NC(=O)C2C(c3ccc(Br)c(Cl)c3)C2(Cl)Cl)ccc1Cl (stereo not drawn) [c101]	A (50-100)	A (80-100)	A (50-100)
Cc1cc(NC(=O)OC(C)(C)C)ccc1NC(=O)c1cc(NC(=O)C2C(c3cc(Cl)cc(Br)c3)C2(Cl)Cl)ccc1Cl (stereo not drawn) [c102]	A (50-100)	D (No activity noticed in this bioassay)	A (50-100)
Cc1cc(N)ccc1NC(=O)c1cc(NC(=O)C2C(c3cc(Cl)cc(Br)c3)C2(Cl)Cl)ccc1Cl (stereo not drawn) [c103]	A (50-100)	A (80-100)	A (50-100)
CN1Cc2ccc(NC(=O)c3cc(NC(=O)C4C(c5cc(Cl)cc(Cl)c5)C4(Cl)Cl)ccc3Cl)cc2C1=O (stereo not drawn) [c104]	A (50-100)	A (80-100)	A (50-100)
CN1Cc2cc(NC(=O)c3cc(NC(=O)C4C(c5cc(Cl)cc(Cl)c5)C4(Cl)Cl)ccc3Cl)ccc2C1=O (stereo not drawn) [c105]	A (50-100)	A (80-100)	A (50-100)
